Experimental data as given in BigSolDB 2.1.

O=C1NC(=O)C(c2ccccc2)(c2ccccc2)N1
solubility (mole fraction)
Details	293.2 K	298.2 K	303.2 K	308.2 K	313.2 K
in n-propanol	0.00263	0.00304	0.00329	0.00358	0.00396
in water	1.29e-06	2.11e-06	2.42e-06	2.64e-06	2.94e-06
